Key:
BFU-E = BFU-E cultured from cord blood; type: cell-based, human
Procedure: (§1) Erythroid burst-forming units (BFU-E) (erythroid progenitors) and colony-forming units granulocyte-macrophage (CFU-GM) (myeloid colonies) were cultured in semi-solid or in two-phase suspension media, with or without hematopoietic growth factors at high levels (e.g., erythropoietin at 3 U/ml) or reduced levels (BFU-E cell proliferation was evaluated by enumeration in colonies developing in the presence of reduced amounts of erythropoietin (0.5 U/ml) rather than 3 U (or 3000 mU)/ml, which is standard for these experimental systems), from cord blood or the peripheral blood of several types of humans. Experiments were carried out on samples derived from 1) β-thalassemia patients who expressed variable levels of fetal globin at baseline (and in untreated control cultures) and represent a variety of potential individual responses, 2) from normal umbilical cord blood samples, which express 40-50% fetal globin at baseline (and in untreated control cultures), 3) from CD34+ cells isolated from normal adult peripheral blood, which expressed low levels of fetal globin in untreated control cultures and at baseline; and 4) from peripheral blood of patients with sickle cell disease who were receiving treatment with hydroxyurea. These biological samples provide a range of potential difficulty in stimulating fetal globin expression in human patients.
In a related study, BFU-E cultured from cord blood, was tested with or without compound M, P, R, T, W, Y, Z, AI, F, or 3-(5-chlorothien-3-yl)acrylic acid.

[1] = tested on: Erythroid colonies (BFU-E); test: Experiment 2: erythroid colonies (BFU-E) cultured from patients with beta thalassemia; type: cell-based, human; conditions: optimal panel of growth factors
Procedure: as §1
Erythroid colonies were cultured from patients with beta thalassemia, either without any test compounds (Control), only an optimal panel of hematopoietic growth factors, or with one of the test compounds M, P, T, 2-methyl-1-benzofuran-4-carboxylic acid, V, W, X, Y, AK, AC, or AI. […] Colony numbers were increased above the control cultures (% BFU-E/Control) by anywhere from 25% to 230%. Each of the listed test compounds was tested in at least 5 different patients' blood and the differences were statistically significant.

γ-globin gene reporter = test: Related study: relative luciferase reporter gene induction; type: cell-based
Procedure: (§2) In a related study, the relative luciferase reporter gene induction, γ-globin gene induction, and F cell production was tested for several of the candidate compounds. The relative in vitro γ-globin gene reporter stimulation for the tested compounds was as follows: compound P>M>W=R=Y. The relative in vitro γ-globin gene induction for the tested compounds was as follows: P>R=M>Y>W>. The relative in vitro F-cell production was as follows: W>Y>R>M>P. The relative potency for F-cell production was as follows: R>M>Y>P>W.

γ-globin mRNA = γ-globin mRNA by RT-PCR in erythroid colonies cultured from cord blood; type: cell-based, human; conditions: for Concentration required: increase in fetal globin mRNA, erythroid colonies from cord blood; for No. of Positive responses: positive cultures/cultures tested
Procedure: γ-globin mRNA was analyzed in control and treated erythroid colonies cultured from cord blood, by RT-PCR.

fetal globin mRNA = test: Fetal globin induction in phlebotomized anemic baboons; type: in vivo, baboon; conditions: for fetal globin mRNA (% of non-alpha globin): baseline 26%
Procedure: Juvenile baboons were catheterized with venous and arterial catheters, and were phlebotomized a set amount of blood daily to maintain anemia with a hemoglobin level of 7.0-7.5 g/dl, from a baseline normal hemoglobin level of (12-13 g/dl). Normal saline was infused to replace the amount of blood withdrawn. This degree of phlebotomy exchanges the blood volume every 10-20 days.
Fetal globin mRNA was analyzed at baseline anemia before and following administration of test compounds. Globin chain protein synthesis confirmed the mRNA findings.
Following establishment of the stable level of anemia, a test compound was administered once/day, either intravenously or orally, and blood was withdrawn through the arterial catheter for analysis of globin mRNA or for analysis of the test compound in the plasma by HPLC-MS. Pharmacokinetic profiles were established from the plasma levels and oral bioavailability (comparing area under the curve between IV and oral plasma levels) was determined for the test compounds.
In anemic Baboon 5002, baseline fetal globin mRNA, assayed by RNAse protection, was 26% of non-alpha globin. With treatment with compound Y at 5 mg/kg/dose, fetal globin mRNA increased to 48% of non-alpha globin, an 85% increase over the baseline level. Treatment with compound AK at 50 mg/kg induced a 51% fetal globin mRNA increase, a 96% increase over the baseline level. […] The human equivalent dose is 20% of these doses, or 1 mg/kg, 10 mg/kg, or 8 mg/kg respectively. Thus, these 3 compounds are highly suitable for pharmaceutical compositions at doses that human patients can readily tolerate.

γ-globin gene = test: Related study: relative in vitro γ-globin gene induction; type: cell-based
Procedure: as §2

F-cell = test: Related study: in vitro F cell production; type: cell-based
Procedure: as §2

[2] = Pharmacokinetic profiles in anemic juvenile baboons (plasma levels by HPLC-MS); type: in vivo; conditions: 10 mg/kg oral, baboon
Procedure: Juvenile baboons were catheterized with venous and arterial catheters, and were phlebotomized a set amount of blood daily to maintain anemia with a hemoglobin level of 7.0-7.5 g/dl, from a baseline normal hemoglobin level of (12-13 g/dl). Normal saline was infused to replace the amount of blood withdrawn. This degree of phlebotomy exchanges the blood volume every 10-20 days. Following establishment of the stable level of anemia, a test compound was administered once/day, either intravenously or orally, and blood was withdrawn through the arterial catheter for analysis of globin mRNA or for analysis of the test compound in the plasma by HPLC-MS. Pharmacokinetic profiles were established from the plasma levels and oral bioavailability (comparing area under the curve between IV and oral plasma levels) was determined for the test compounds.

γ globin promoter = test: β/γ-globin promoter driven reporter gene assay; type: cell-based; conditions: Table 2
[3] = tested on: cells expressing fetal globin (F-cells); test: Experiment 1: proportion of F-cells in hematopoietic colonies by FACScan; type: cell-based, human; conditions: same low concentrations as for fetal globin mRNA induction
Procedure: as §1
Hematopoietic colonies were enumerated with or without (+/−) the test compounds, and compared to colonies which developed in the presence of hematopoietic growth factors alone from the same subject (untreated control colonies), and proportions of cells expressing fetal globin (F-cells) were analyzed by FACScan analysis.

myeloid colonies = test: Experiment 3: myeloid colonies in cord blood cultured without added growth factors; type: cell-based, human; conditions: no added growth factors
Procedure: as §1
Control colonies were established in cultures with no added growth factors to support myelopoiesis, in Iscove's Modified Dulbecco's Media (IMDM) methylcellulose media with charcoal-absorbed fetal bovine serum, beta mercaptoethanol, BSA.

Erythroid colonies = test: Experiment 6: erythroid colony growth from sickle cell patients receiving hydroxyurea; type: cell-based, human
Procedure: Erythroid colonies from the peripheral blood of 4 patients with sickle cell disease who were receiving treatment with Hydroxyurea (HU), a chemotherapeutic agent which suppresses marrow growth and reduces red blood cell production, were cultured alone or with added test compounds M, P, 2-methyl-1-benzofuran-4-carboxylic acid, V, W, Y (racemic mixture) or AI. L-arginine was added as a neutral control, and had no effect on numbers of erythroid colonies.
2-methyl-1-benzofuran-4-carboxylic acid and compound V require additional samples for statistical evaluation, but had positive effects in 3/3 different patients' cultures. These findings indicate that the test compounds stimulate erythroid cell production particularly in conditions of anemia and bone marrow suppression.

[4] = tested on: fetal globin gene promoter; test: Example 8: factor occupancy of globin gene promoters in primary erythroid cells; type: cell-based
Excerpt: This is a selective effect on the fetal (gamma globin) gene promoter, without generalized widespread epistatic effects or any effects on the beta globin promoter, as other agents tend to cause. The transcription factor EKLF and the remodeling complex Brg1 and Pol II became bound to the promoter in association with gene activation. In contrast, there were no effects on the beta globin gene promoter. These compounds therefore produce highly specific activating effects solely on the globin gene promoter which would be beneficial to induce for therapy of the beta globin gene disorders, and provide a targeted molecular activity.

[5] = tested on: Erythroid cells cultured from adult blood; test: Experiment 4: erythroid cells cultured from adult blood CD34+ cells (cell counts, qRT-PCR, HPLC of hemoglobins); type: cell-based, human
Procedure: Erythroid cells cultured from adult blood are low-HbF expressing and are the most difficult to alter with regard to globin expression. This experiment analyzed erythroid cells cultured from adult blood in the presence or absence of representative test compounds.
Erythroid cells were generated by culturing purified CD34+ cells in Flt-3 ligand, stem cell factor (SCF) and IL-3 for seven days followed by growth in EPO for 14 days. For treatment, cells were cultured as above in a T75 flask then split into multiple flasks on day 8 and treatment with the test compounds was begun. Compound P or other test compounds were diluted from stock solutions with the microliter volumes of stock added to each culture flask for final working concentrations. Cells were enumerated every two days by hemacytometer count. RNA was harvested from 10^6 cells every two days using RNeasy Plus Mini Kit (Qiagen) and qRT-PCR performed using IQ SybrGreen Supermix on an Opticon Monitor instrument (MJ Research). […] Separation of hemoglobins was performed by cation exchange HPLC using a 35×4.6 mm; […] PolyCAT A column (Nest Group) as described previously by Cheryl Rognerud and Ching-Nan Ou, and outlined by the column manufacturer.
QPCR primers were designed using known sequences for α-globin, β-globin, γ-globin, β-actin and B3PD. Primers were designed to span at least one […].

Q: Which results are given for `COc1cc(OC)nc(SC(C(=O)O)C(C)C)n1` (racemic) [Compound Y]?
A: numbers of BFU-E colonies compared to controls (BFU-E): increased numbers of colonies; number of erythroid colonies compared to matched control cultures [1]: increased the number of colonies; relative in vitro γ-globin gene reporter stimulation (rank order) (γ-globin gene reporter): P>M>W=R=Y; Concentration required (γ-globin mRNA): 5 µM; No. of Positive responses (γ-globin mRNA): 1/3; increase over the baseline level of fetal globin mRNA (fetal globin mRNA; Baboon 5002, 5 mg/kg/dose): 85%; fetal globin mRNA (% of non-alpha globin) (fetal globin mRNA; Baboon 5002, 5 mg/kg/dose, RNAse protection): 48%; relative in vitro γ-globin gene induction (rank order) (γ-globin gene): P>R=M>Y>W; relative in vitro F-cell production (rank order) (F-cell): W>Y>R>M>P; relative potency for F-cell production (rank order) (F-cell): R>M>Y>P>W; initial burst level [2]: does not produce an undesirable high initial burst level; persistence in plasma [2]: greater than 24 hours; % γ globin promoter induction (above untreated control) (γ globin promoter): ** (‘**’ indicates a 100%-200% increase); proportion of F-cells above the percentage in untreated controls [3]: significant increases; production of myeloid colonies compared to untreated control (myeloid colonies): stimulated production of myeloid colonies

Q: Which “effect on numbers of erythroid colonies compared to control” value (Erythroid colonies) does the source give for `NC(=O)NO` [Hydroxyurea] here?
A: decreased numbers of erythroid colonies

Q: With `CCC(Nc1ncnc2ccccc12)C(=O)O` (stereo not shown) [Compound M] as the compound, how does the “numbers of BFU-E colonies compared to controls” value (BFU-E) read?
A: increased numbers of colonies

Q: What about the “number of erythroid colonies compared to matched control cultures” value [1] of the same compound?
A: increased the number of colonies

Q: What about the “relative in vitro γ-globin gene reporter stimulation (rank order)” value (γ-globin gene reporter) of the same compound?
A: P>M>W=R=Y

Q: What about the “Concentration required” value (γ-globin mRNA) of the same compound?
A: 5 µM

Q: And the “No. of Positive responses” value (γ-globin mRNA)?
A: 4/6

Q: And the “increase over the baseline level of fetal globin mRNA” value (fetal globin mRNA; Baboon 5002, 40 mg/kg)?
A: 257%

Q: What about the “fetal globin mRNA (% of non-alpha globin)” value (fetal globin mRNA; Baboon 5002, 40 mg/kg) of the same compound?
A: 67%

Q: What about the “relative in vitro γ-globin gene induction (rank order)” value (γ-globin gene) of the same compound?
A: P>R=M>Y>W

Q: What about the “relative in vitro F-cell production (rank order)” value (F-cell) of the same compound?
A: W>Y>R>M>P

Q: What about the “relative potency for F-cell production (rank order)” value (F-cell) of the same compound?
A: R>M>Y>P>W

Q: And the “% γ globin promoter induction (above untreated control)” value (γ globin promoter)?
A: ** (‘**’ indicates a 100%-200% increase)

Q: What about the “proportion of F-cells above the percentage in untreated controls” value [3] of the same compound?
A: significant increases

Q: What about the “production of myeloid colonies compared to untreated control” value (myeloid colonies) of the same compound?
A: stimulated production of myeloid colonies

Q: With `N=C(N)NCCC[C@H](N)C(=O)O` [L-arginine] as the compound, how does the “effect on numbers of erythroid colonies compared to control” value (Erythroid colonies) read?
A: no effect

Q: Which “numbers of BFU-E colonies compared to controls” value (BFU-E) does the source give for `O=C(O)c1cccc(-c2cc3ccccc3oc2=O)c1` [Compound P] here?
A: increased numbers of colonies

Q: And the “number of erythroid colonies compared to matched control cultures” value [1]?
A: increased the number of colonies

Q: And the “relative in vitro γ-globin gene reporter stimulation (rank order)” value (γ-globin gene reporter)?
A: P>M>W=R=Y

Q: And the “Concentration required” value (γ-globin mRNA)?
A: 20 µM

Q: And the “No. of Positive responses” value (γ-globin mRNA)?
A: 6/6

Q: What about the “EKLF and Brg1 ATPase proteins at the gamma-globin gene promoter” value [4] of the same compound?
A: induced recruitment

Q: What about the “effects on the beta globin gene promoter” value [4] of the same compound?
A: no effects

Q: And the “repressor complex of HDAC3, NCoR at the fetal globin gene promoter” value [4]?
A: displacement of a repressor complex of HDAC3, NCoR

Q: And the “induction of fetal globin (% of globin expression)” value (fetal globin mRNA; phlebotomized anemic baboon with no baseline fetal globin)?
A: 7%

Q: What about the “beta globin expression” value (fetal globin mRNA; same baboon, baseline 100% beta globin) of the same compound?
A: concommitant reduction

Q: And the “relative in vitro γ-globin gene induction (rank order)” value (γ-globin gene)?
A: P>R=M>Y>W

Q: What about the “relative in vitro F-cell production (rank order)” value (F-cell) of the same compound?
A: W>Y>R>M>P

Q: What about the “relative potency for F-cell production (rank order)” value (F-cell) of the same compound?
A: R>M>Y>P>W

Q: What about the “% γ globin promoter induction (above untreated control)” value (γ globin promoter) of the same compound?
A: *** (‘***’ indicates an over 200% increase of γ globin promoter induction over untreated controls)

Q: What about the “proportion of F-cells above the percentage in untreated controls” value [3] of the same compound?
A: significant increases

Q: What about the “Cell counts vs cells cultured with erythropoietin alone” value ([5]; 20 microM) of the same compound?
A: increased

Q: And the “increase in expression of fetal globin (Hemoglobin F protein) vs untreated control” value ([5]; 100 micromolar, one cycle of erythroid differentiation)?
A: 19 fold

Q: What about the “production/expression of alpha globin” value ([5]; different doses) of the same compound?
A: no effect

Q: What about the “production of beta globin” value ([5]; same doses as increases in fetal globin mRNA) of the same compound?
A: reciprocal decrease

Source: US9095565B2, “Methods for treating blood disorders” (Phoenicia Biosciences, Inc., priority 2006, dated 2015)
